Experimental data taken from US5034543A, “Ascorbic acid derivative and use as antioxidants” (Nippon Hypox Laboratories Incorporated, priority 1989, dated 1991).

Key:
[1] = Antioxidant action examined by using stable radicals: reduction activity of DPPH (Blois method, absorbance at 517 nm); settings: 0.1 mM DPPH in ethanol, after 20 minutes, read-out: 50% radical eliminating concentration
Method: (Antioxidant action examined by using stable radicals)
Reduction activity of α,α-diphenyl-β-picrylhydrazyl (DPPH) which was a stable free radical was examined according to the M. S. Blois method (Nature, vol. 181, page. 1199, 1958) and used as an index to antioxidant action. Thus, specimens were added to 3 ml of a 0.1 mM DPPH solution in ethanol, and absorbance at a wavelength of 517 nm was measured using a spectrophotometer after 20 minutes. The difference in absorbance from the solvent control [0.5% or less of dimethylformamide (DMF)] was taken as the reduction activity.

[2] = Effects on formazan formation in the xanthine-xanthine oxidase-Nitrotetrazolium Blue system; format: biochemical; settings: for Inhibition ratio of formazan formation: pH 7.8, 30° C., 10 minutes; for inhibition of formazan formation (result in words): xanthine-xanthine oxidase-NTB system
Method: (Effects on formazan formation in the xanthine-xanthine oxidase-Nitrotetrazolium Blue system)
Specimens were added to a 0.05M phosphate buffer solution (pH 7.8) containing xanthine, EDTA 2Na and Nitrotetrazolium Blue (NTB) so as to provide the respective final concentrations of 5×10^-5 M, 1×10^-4 M and 5×10^-4 M and warmed at 30° C. for 3 minutes. Xanthine oxidase (manufactured by Sigma Corp.) was added, and the resulting specimens were warmed at 30° C. for 10 minutes to colorimetrically determine formazan formed by superoxide anion radicals. The inhibition ratio of formazan formation was determined from the results at concentrations of 0.5 mM and 4 mM of each specimen.

IC50 [1] | SMILES | further results
30 µM | CCCCCCCCCCCCCCCCCCOC1=C(O)C(=O)O[C@@H]1[C@@H]1COC(C)(C)O1 [Compound 001] | 
29 µM | CCCCCCCCCCCCOC1=C(O)C(=O)O[C@@H]1[C@@H]1COC(C)(C)O1 [Compound 002] | 
27 µM | CCCCCCCCOC1=C(O)C(=O)O[C@@H]1[C@@H]1COC(C)(C)O1 [Compound 003] | 
25 µM | CCCCOC1=C(O)C(=O)O[C@@H]1[C@@H]1COC(C)(C)O1 [Compound 004] | 
32 µM | CCC(C)OC1=C(O)C(=O)O[C@@H]1[C@@H]1COC(C)(C)O1 (stereo partly shown) [Compound 005] | 
22 µM | CC1(C)OC[C@@H]([C@H]2OC(=O)C(O)=C2OCc2ccccc2)O1 [Compound 006] | 
23 µM | CC1(C)OC[C@@H]([C@H]2OC(=O)C(O)=C2OCc2cccnc2)O1 [Compound 007] | 
16 µM | CCOC(=O)CCCCOC1=C(O)C(=O)O[C@@H]1[C@@H]1COC(C)(C)O1 [Compound 008] | 
25 µM | CC1(C)OC[C@@H]([C@H]2OC(=O)C(O)=C2OCCCCCCCCCCCCCCCCC(=O)O)O1 [Compound 009] | 
16 µM | CCOC(=O)CCCOC1=C(O)C(=O)O[C@@H]1[C@@H]1COC(C)(C)O1 [Compound 010] | 
33 µM | C=CCOC1=C(O)C(=O)O[C@@H]1[C@@H]1COC(C)(C)O1 [Compound 011] | 
35 µM | CC1(C)OC[C@@H]([C@H]2OC(=O)C(O)=C2OCCO)O1 [Compound 012] | 
17 µM | COCOC1=C(O)C(=O)O[C@@H]1[C@@H]1COC(C)(C)O1 [Compound 013] | 
26 µM | CCOC(=O)C(C)OC1=C(O)C(=O)O[C@@H]1[C@@H]1COC(C)(C)O1 (stereo partly shown) [Compound 014] | 
31 µM | CC1(C)OC[C@@H]([C@H]2OC(=O)C(O)=C2OCC(=O)O)O1 [Compound 015] | 
25 µM | CC1(C)OC[C@@H]([C@H]2OC(=O)C(O)=C2OCC(=O)OCc2ccccc2)O1 [Compound 016] | 
25 µM | CC(C)(C)OC(=O)COC1=C(O)C(=O)O[C@@H]1[C@@H]1COC(C)(C)O1 [Compound 017] | 
28 µM | CCCCCCCCCCOC(=O)COC1=C(O)C(=O)O[C@@H]1[C@@H]1COC(C)(C)O1 [Compound 018] | 
25 µM | CCCCOC(=O)COC1=C(O)C(=O)O[C@@H]1[C@@H]1COC(C)(C)O1 [Compound 019] | 
23 µM | CCOC(=O)COC1=C(O)C(=O)O[C@@H]1[C@@H]1COC(C)(C)O1 [Compound 020] | 
17 µM | CC(=O)COC1=C(O)C(=O)O[C@@H]1[C@@H]1COC(C)(C)O1 [Compound 021, L-5,6-O-isopropylidene-3-O-methylcarbomethylascorbic acid] | Inhibition ratio of formazan formation ([2]; 0.5 mM): 9.2%; Inhibition ratio of formazan formation ([2]; 4 mM): 47.4%; inhibition of formazan formation (result in words) [2]: remarkably inhibited formazan formation
20 µM | CCC(=O)COC1=C(O)C(=O)O[C@@H]1[C@@H]1COC(C)(C)O1 [Compound 022, L-5,6-O-isopropylidene-3-O-(3-butanone) ascorbic acid] | Inhibition ratio of formazan formation ([2]; 0.5 mM): 22.6%; Inhibition ratio of formazan formation ([2]; 4 mM): 26.7%; inhibition of formazan formation (result in words) [2]: remarkably inhibited formazan formation
24 µM | CC1(C)OC[C@@H]([C@H]2OC(=O)C(O)=C2OCC(=O)c2ccccc2)O1 [Compound 023] | 
31 µM | CC1(C)OC[C@@H]([C@H]2OC(=O)C(O)=C2OCC#N)O1 [Compound 024] | 
22 µM | CCOC1=C(O)C(=O)O[C@@H]1[C@@H]1COC(C)(C)O1 [Compound 025] | 
